Assays:
Type in all cases: biochemical
ERK2 = ERK2 (Homo sapiens, UniProt P28482); assay: Kinase profiling ERK2; conditions: for residual kinase activity, ERK2: 100 micromolar inhibitor concentration, 100 is no change
Excerpt: (§1) Any value less that 25 is considered to be highly significant inhibition.

JNK1 = JNK1 (Homo sapiens, UniProt P45983); assay: Kinase profiling JNK1
Excerpt: as §1

JNK3 = JNK3 (Homo sapiens, UniProt P53779); assay: Kinase profiling JNK3; conditions: for residual kinase activity, JNK3: 100 micromolar inhibitor concentration, 100 is no change
Sequence of JNK3 (P53779 whole entry, species assumed): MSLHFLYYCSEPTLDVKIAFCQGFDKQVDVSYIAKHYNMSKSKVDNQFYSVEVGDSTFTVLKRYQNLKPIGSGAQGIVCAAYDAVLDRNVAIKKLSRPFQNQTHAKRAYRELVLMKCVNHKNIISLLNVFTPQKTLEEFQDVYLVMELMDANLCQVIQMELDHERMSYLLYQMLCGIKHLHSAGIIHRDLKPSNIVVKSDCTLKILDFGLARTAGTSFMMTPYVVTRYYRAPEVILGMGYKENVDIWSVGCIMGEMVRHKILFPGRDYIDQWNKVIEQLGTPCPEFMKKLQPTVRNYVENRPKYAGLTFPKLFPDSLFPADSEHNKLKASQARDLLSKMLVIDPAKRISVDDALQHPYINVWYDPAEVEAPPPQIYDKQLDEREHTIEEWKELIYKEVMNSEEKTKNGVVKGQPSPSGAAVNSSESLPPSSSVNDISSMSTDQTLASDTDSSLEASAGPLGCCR
Excerpt: as §1

p38b MAPK = p38b MAPK (Homo sapiens, UniProt Q15759); assay: Kinase profiling p38b MAPK; conditions: for residual kinase activity, p38b MAPK: 100 micromolar inhibitor concentration, 100 is no change
Sequence of p38b MAPK (Q15759 whole entry): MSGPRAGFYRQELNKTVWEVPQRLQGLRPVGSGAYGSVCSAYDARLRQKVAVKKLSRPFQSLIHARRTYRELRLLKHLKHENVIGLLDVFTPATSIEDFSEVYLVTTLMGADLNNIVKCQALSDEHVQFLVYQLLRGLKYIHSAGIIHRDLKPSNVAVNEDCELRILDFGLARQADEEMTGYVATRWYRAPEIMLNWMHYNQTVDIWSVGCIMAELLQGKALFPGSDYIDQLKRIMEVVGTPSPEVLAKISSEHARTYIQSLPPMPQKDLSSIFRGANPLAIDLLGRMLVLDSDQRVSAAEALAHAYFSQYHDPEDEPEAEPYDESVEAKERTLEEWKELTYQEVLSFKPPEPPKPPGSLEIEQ
Excerpt: as §1

RSK2 = RSK2 (Homo sapiens, UniProt P51812); assay: Kinase profiling RSK2; conditions: for residual kinase activity, RSK2: 100 micromolar inhibitor concentration, 100 is no change
Sequence of RSK2 (P51812 whole entry, species assumed): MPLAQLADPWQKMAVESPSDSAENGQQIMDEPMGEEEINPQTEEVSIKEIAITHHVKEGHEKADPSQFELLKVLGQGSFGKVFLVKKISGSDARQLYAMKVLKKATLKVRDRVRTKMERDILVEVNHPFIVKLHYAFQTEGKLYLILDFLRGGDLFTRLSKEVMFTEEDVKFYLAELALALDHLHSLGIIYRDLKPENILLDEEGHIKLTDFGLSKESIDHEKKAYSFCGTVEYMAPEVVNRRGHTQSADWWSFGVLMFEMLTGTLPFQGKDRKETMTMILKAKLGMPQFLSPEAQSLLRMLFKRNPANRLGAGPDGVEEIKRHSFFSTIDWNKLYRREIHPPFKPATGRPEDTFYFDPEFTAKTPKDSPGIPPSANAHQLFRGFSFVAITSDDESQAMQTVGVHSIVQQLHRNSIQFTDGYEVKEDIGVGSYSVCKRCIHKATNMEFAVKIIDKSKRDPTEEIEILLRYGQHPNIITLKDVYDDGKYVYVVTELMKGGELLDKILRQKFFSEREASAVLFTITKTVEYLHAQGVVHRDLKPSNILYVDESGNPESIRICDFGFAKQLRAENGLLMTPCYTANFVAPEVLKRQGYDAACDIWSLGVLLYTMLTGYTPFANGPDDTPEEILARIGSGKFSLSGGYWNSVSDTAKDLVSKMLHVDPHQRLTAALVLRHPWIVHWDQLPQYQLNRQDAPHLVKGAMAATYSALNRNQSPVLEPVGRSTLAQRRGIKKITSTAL
Excerpt: as §1

ROCK 2 = ROCK 2 (Homo sapiens, UniProt O75116); assay: Kinase profiling ROCK 2
Sequence of ROCK 2 (O75116 whole entry, species assumed): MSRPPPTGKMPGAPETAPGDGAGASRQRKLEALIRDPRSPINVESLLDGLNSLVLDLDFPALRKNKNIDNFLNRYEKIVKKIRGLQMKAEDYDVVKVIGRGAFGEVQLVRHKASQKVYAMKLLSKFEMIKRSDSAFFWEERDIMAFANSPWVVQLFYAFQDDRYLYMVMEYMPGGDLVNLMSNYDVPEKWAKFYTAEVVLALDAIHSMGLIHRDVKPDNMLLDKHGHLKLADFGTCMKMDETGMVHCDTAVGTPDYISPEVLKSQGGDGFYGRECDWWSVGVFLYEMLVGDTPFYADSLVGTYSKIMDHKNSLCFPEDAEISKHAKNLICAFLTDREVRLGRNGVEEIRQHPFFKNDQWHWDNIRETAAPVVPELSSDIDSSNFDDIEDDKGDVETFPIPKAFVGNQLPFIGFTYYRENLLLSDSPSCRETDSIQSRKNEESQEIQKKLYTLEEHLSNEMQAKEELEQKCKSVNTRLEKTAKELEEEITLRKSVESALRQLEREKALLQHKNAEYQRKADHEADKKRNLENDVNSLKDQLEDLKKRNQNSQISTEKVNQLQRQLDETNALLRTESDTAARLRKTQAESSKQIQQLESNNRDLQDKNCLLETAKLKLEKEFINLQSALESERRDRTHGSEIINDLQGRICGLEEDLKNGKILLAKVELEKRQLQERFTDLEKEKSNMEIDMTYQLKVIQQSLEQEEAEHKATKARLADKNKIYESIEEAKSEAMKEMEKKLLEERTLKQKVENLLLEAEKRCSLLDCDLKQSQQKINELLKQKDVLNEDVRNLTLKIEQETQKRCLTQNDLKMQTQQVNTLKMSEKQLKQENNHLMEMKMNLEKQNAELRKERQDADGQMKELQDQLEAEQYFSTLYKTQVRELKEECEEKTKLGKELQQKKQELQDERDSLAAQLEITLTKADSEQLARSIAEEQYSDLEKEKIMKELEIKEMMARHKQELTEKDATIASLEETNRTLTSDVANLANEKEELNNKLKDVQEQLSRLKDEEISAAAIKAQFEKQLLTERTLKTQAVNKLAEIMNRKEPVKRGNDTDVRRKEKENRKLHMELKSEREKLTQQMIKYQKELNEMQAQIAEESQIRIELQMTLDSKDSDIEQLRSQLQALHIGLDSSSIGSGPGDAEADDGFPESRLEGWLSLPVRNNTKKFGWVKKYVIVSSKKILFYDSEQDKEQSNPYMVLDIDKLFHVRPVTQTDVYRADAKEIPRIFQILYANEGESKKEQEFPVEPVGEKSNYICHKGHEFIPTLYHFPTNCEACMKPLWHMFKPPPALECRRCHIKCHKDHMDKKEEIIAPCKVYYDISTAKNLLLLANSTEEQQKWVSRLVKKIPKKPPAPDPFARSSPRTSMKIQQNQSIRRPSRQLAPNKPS
Excerpt: as §1

PKCa = PKCa (Homo sapiens, UniProt P17252); assay: Kinase profiling PKCa
Excerpt: as §1

PKD1 = target: T1, PKD1 (Homo sapiens, UniProt Q15139); assay: Kinase profiling PKD1
T1 sequence (Q15139 1-912): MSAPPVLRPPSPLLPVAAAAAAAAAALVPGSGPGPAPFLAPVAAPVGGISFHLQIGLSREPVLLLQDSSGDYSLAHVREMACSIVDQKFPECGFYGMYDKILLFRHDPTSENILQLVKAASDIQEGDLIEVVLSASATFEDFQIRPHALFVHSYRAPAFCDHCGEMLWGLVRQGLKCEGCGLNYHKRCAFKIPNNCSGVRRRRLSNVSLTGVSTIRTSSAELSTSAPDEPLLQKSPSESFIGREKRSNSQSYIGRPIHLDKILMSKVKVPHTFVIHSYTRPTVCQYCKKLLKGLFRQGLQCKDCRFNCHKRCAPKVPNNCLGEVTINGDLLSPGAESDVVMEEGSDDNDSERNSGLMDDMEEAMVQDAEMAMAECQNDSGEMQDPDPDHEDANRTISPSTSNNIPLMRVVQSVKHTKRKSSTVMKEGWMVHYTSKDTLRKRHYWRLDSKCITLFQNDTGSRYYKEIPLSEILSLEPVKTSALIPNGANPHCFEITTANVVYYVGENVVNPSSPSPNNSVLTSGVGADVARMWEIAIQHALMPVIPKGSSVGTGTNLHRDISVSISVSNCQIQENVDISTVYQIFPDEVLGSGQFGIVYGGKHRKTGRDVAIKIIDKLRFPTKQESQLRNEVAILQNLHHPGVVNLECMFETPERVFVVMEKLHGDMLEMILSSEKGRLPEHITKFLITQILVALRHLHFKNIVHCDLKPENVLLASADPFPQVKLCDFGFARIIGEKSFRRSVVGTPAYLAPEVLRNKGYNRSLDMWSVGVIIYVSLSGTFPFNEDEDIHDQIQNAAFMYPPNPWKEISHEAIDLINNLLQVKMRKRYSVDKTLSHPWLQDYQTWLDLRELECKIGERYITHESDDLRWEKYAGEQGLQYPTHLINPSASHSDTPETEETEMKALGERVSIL
Excerpt: as §1

LKB1 = target: T2, LKB1 (Homo sapiens, UniProt Q15831); assay: Kinase profiling LKB1
T2 sequence (Q15831 1-433): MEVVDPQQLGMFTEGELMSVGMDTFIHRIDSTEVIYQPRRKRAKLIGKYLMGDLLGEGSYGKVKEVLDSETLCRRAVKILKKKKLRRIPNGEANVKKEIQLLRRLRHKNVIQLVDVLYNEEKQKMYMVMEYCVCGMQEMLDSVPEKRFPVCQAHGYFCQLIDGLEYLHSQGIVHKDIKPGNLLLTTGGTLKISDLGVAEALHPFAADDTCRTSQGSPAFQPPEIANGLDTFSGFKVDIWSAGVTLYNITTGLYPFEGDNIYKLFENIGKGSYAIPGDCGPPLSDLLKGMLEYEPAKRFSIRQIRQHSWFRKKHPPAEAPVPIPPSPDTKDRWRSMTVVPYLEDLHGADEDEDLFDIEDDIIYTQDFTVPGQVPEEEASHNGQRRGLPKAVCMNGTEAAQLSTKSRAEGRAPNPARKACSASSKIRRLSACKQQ
T2 sequence (Q7RTN6 1-431 partner): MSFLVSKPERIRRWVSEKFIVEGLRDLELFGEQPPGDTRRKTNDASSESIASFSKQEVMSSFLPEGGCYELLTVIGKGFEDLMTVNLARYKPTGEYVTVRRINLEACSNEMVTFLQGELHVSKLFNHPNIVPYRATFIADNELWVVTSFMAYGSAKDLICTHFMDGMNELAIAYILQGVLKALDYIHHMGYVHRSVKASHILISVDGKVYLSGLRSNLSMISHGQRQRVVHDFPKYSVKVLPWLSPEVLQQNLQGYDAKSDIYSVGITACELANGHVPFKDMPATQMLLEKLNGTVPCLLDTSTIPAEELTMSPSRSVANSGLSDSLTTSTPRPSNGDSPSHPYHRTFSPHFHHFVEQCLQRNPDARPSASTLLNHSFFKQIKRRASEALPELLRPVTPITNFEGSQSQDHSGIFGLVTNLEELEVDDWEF
T2 sequence (Q9Y376 1-341 partner): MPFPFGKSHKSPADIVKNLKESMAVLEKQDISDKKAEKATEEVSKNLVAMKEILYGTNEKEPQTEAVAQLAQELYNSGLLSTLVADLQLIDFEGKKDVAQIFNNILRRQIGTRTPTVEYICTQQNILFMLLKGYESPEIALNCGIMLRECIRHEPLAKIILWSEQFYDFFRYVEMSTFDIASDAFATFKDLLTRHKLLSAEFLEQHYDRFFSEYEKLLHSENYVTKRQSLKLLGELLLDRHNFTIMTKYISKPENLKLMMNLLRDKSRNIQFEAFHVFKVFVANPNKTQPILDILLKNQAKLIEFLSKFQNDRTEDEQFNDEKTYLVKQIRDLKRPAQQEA
Excerpt: as §1

CK2 = assay: Kinase profiling CK2
Excerpt: as §1

NEK6 = NEK6 (Homo sapiens, UniProt Q9HC98); assay: Kinase profiling NEK6
Sequence of NEK6 (Q9HC98 whole entry, species assumed): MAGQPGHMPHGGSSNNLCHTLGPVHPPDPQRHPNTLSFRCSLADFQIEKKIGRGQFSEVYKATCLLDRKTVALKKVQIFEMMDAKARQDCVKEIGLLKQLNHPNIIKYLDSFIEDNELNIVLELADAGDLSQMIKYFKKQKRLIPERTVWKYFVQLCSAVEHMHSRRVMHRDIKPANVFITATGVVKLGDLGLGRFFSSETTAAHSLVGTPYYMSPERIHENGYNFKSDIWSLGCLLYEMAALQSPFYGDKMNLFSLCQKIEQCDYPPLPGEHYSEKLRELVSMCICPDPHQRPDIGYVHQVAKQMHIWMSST
Excerpt: as §1

PIM1 = PIM1 (Homo sapiens, UniProt P11309); assay: Kinase profiling PIM1
Excerpt: as §1

PAK4 = PAK4 (Homo sapiens, UniProt O96013); assay: Kinase profiling PAK4
Excerpt: as §1

[1] = 100 micromolar inhibitor concentration, 100 is no change
[2] = 100 micromolar inhibitor, 100 = no change

Sequence of ERK2 (P28482 whole entry, species assumed): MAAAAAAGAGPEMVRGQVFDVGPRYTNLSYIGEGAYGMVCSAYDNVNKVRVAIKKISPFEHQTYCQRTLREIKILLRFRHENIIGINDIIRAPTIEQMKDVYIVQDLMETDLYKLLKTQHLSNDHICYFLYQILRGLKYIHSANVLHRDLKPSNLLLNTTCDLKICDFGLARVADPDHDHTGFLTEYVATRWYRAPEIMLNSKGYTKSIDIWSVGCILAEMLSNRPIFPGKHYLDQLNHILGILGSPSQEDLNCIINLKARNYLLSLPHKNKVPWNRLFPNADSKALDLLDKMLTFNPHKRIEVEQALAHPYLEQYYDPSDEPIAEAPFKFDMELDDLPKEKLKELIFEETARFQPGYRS
Sequence of JNK1 (P45983 whole entry, species assumed): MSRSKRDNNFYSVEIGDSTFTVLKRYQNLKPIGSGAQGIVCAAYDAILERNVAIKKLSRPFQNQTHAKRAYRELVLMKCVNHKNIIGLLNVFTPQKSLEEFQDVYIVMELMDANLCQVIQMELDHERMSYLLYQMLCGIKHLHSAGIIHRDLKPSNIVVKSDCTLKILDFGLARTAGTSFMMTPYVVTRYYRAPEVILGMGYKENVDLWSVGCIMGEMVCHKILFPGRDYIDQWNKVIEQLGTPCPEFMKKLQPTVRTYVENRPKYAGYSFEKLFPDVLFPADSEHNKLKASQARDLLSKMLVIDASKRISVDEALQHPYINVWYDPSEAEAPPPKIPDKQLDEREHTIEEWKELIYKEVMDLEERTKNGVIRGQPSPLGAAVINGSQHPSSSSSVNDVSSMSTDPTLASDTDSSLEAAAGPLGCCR

Compound	residual kinase activity, CK2 (CK2; [1])	residual kinase activity, ERK2 (ERK2)	residual kinase activity, JNK1 (JNK1; [1])	residual kinase activity, JNK3 (JNK3)	residual kinase activity, p38b MAPK (p38b MAPK)	residual kinase activity, RSK2 (RSK2)	residual kinase activity, ROCK 2 (ROCK 2; [1])	residual kinase activity, PKCa (PKCa; [1])	residual kinase activity, PKD1 (PKD1; [1])	residual kinase activity, LKB1 (LKB1; [1])	residual kinase activity, NEK6 (NEK6; [1])	residual kinase activity, PIM1 (PIM1; [1])	residual kinase activity, PAK4 (PAK4; [1])	other results
CC(=O)Nc1nc2cc(O)ccc2s1 [Compound 01-66, N-(5-hydroxybenzo[d]thiazol-2-yl)acetamide]	54	–	–	–	–	–	–	–	–	–	–	–	–	remaining activity at 100 µM (ERK2; read-out: residual kinase activity, ERK2): 104%; remaining activity at 100 µM (JNK1; read-out: residual kinase activity, JNK1): 53%; remaining activity at 100 µM (JNK3; read-out: residual kinase activity, JNK3): 37%; remaining activity at 100 µM (p38b MAPK; read-out: residual kinase activity, p38b MAPK): 92%; remaining activity at 100 µM (RSK2; read-out: residual kinase activity, RSK2): 66%; remaining activity at 100 µM (ROCK 2; read-out: residual kinase activity, ROCK 2): 56%; remaining activity at 100 µM (PKCa; read-out: residual kinase activity, PKCa): 82%; remaining activity at 100 µM (PKD1; read-out: residual kinase activity, PKD1): 30%; remaining activity at 100 µM (LKB1; read-out: residual kinase activity, LKB1): 38%; remaining activity at 100 µM (NEK6; read-out: residual kinase activity, NEK6): 82%; remaining activity at 100 µM (PIM1; read-out: residual kinase activity, PIM1): 12%; remaining activity at 100 µM (PAK4; read-out: residual kinase activity, PAK4): 66%
COc1ccc2sc(NC(=O)c3ccc(NC(C)=O)cc3)nc2c1 [MS:LY-2-77]	–	105	104	88	110	81	96	97	114	–	–	–	–	–
COc1ccc2sc(NC(=O)c3cccc(NC(C)=O)c3)nc2c1 [MS:LY-2-85]	–	98	97	62	92	32	29	63	49	–	–	–	–	–
CC(=O)Nc1ccccc1C(=O)Nc1nc2ccc(O)cc2s1 [Compound 08-39]	–	68	92	53	96	2	22	43	32	–	–	–	–	–
CC(=O)Nc1cccc(C(=O)Nc2nc3ccc(O)cc3s2)c1 [Compound 03-58]	–	104	80	51	75	51	10	96	54	–	–	–	–	–
CC(=O)NC(C)C(=O)Nc1nc2ccc(C(F)(F)F)cc2s1 (stereo not drawn) [Compound 03-80]	–	101	86	79	77	66	80	125	82	–	–	–	–	–
CC(=O)Nc1ccc(C(=O)Nc2nc3cc(O)ccc3s2)cc1 [MS:LY-2-87]	–	81	105	66	82	28	38	59	52	–	–	–	–	–
CC(=O)Nc1cccc(C(=O)Nc2nc3cc(O)ccc3s2)c1 [MS:LY-2-89]	–	68	68	36	17	8	11	48	22	–	–	–	–	–
COc1ccc2nc(C(=O)Nc3ccccc3)sc2c1 [Compound 13-03]	–	–	–	–	–	–	–	–	–	–	–	–	–	residual kinase activity, JNK1 (JNK1; [2]): 88; residual kinase activity, ROCK 2 (ROCK 2; [2]): 70; residual kinase activity, PKCa (PKCa; [2]): 119; residual kinase activity, PKD1 (PKD1; [2]): 113; residual kinase activity, LKB1 (LKB1; [2]): 110; residual kinase activity, CK2 (CK2; [2]): 97; residual kinase activity, NEK6 (NEK6; [2]): 107; residual kinase activity, PIM1 (PIM1; [2]): 96; residual kinase activity, PAK4 (PAK4; [2]): 58
COc1ccc2nc(NC(=O)c3ccccc3)sc2c1 [Compound 03-98]	88	–	95	–	–	–	66	89	104	118	94	76	37	–
N#Cc1ccc2nc(NC(=O)c3ccccc3)sc2c1 [Compound 03-106]	12	–	84	–	–	–	125	100	86	107	97	32	94	–
COC(=O)c1cccc(C(=O)Nc2nc3cc(OC)ccc3s2)c1 [Compound 03-108]	97	–	93	–	–	–	52	85	102	90	93	95	100	–
O=C(Nc1nc2ccc(F)cc2s1)c1ccccc1 [Compound 03-92]	90	–	94	–	–	–	95	96	111	100	106	69	111	–

Reference: patent US10231954B2, “Neurodegenerative therapies” (LYTIX BIOPHARMA AS, priority 2014, dated 2019)
